Data as given in ChEMBL document CHEMBL4420062, “Tfpi inhibitors and methods of use” (2013).
Where a SMILES comes first, the peptide text is derived from it. [ ]: non-standard residue; d: D form. Aib = CC(C)(N)C(=O)O

target: T1, Tissue factor pathway inhibitor (Homo sapiens, UniProt P10646); experiment: Binding affinity to TFPI (unknown origin) incubated for […] using tracer peptide JBT0131 by screening ELISA; settings: not given
T1 sequence (P10646 whole entry): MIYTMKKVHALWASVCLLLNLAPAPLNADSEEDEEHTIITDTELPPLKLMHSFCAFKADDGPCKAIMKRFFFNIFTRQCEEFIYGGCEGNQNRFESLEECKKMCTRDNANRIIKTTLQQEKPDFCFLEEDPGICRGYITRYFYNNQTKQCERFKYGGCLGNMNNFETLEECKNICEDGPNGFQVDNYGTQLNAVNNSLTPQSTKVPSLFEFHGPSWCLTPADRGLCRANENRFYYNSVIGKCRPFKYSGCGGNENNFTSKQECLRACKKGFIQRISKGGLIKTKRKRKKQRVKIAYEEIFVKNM

Going from Ac-FQSKGNVFVDGYFERLRMKL-NH2 to CC(=O)N[C@@H](Cc1ccccc1)C(=O)N[C@@H](CCC(N)=O)C(=O)N[C@@H](CO)C(=O)N[C@@H](CCCCN)C(=O)NCC(=O)N[C@@H](CC(N)=O)C(=O)N[C@H](C(=O)N[C@@H](Cc1ccccc1)C(=O)N[C@H](C(=O)N[C@@H](CC(=O)O)C(=O)NCC(=O)NC(C)(C)C(=O)NC(C)(C)C(=O)N[C@@H](C)C(=O)N[C@@H](CCCCN)C(=O)N[C@@H](CC(C)C)C(N)=O)C(C)C)C(C)C (Ac-FQSKGNVFVDG[Aib][Aib]AKL-NH2), the IC50 rises from under 0.05 µM to over 5 µM.

Ac-FQSKKFVFVFGYFERLRAKL-NH2 and Ac-FQSKKNVFVFGYFERDRAKL-NH2 cannot be ordered by IC50: over 5 µM for the first, over 5 µM for the second.

Ac-FQSKKNYDVFGYFERLRAKL-NH2 and Ac-FQSKKNVFVFGYFERLRAFL-NH2 cannot be ordered by IC50: over 5 µM for the first, over 5 µM for the second.

Ac-FQSKKLVFVFGYFERLRAKL-NH2 and Ac-FQSLKNVFVFGYFERLRAKL-NH2 cannot be ordered by IC50: over 5 µM for the first, over 1.67 µM for the second.

Compared with Ac-FQSKHHVFVDGYFERLCAKL-NH2, Ac-FQSKKNVFVFGFFERLRAKL-NH2 is higher in IC50: under 0.05 µM for the first, over 5 µM for the second.

Ac-FQSKKNVFVFLYFERLRAKL-NH2 and CC(=O)N[C@@H](Cc1ccccc1)C(=O)N[C@@H](CCC(N)=O)C(=O)N[C@@H](CO)C(=O)N[C@@H](CCCCN)C(=O)NCC(=O)N[C@@H](CC(N)=O)C(=O)N[C@H](C(=O)NC(C)(C)C(=O)N[C@H](C(=O)N[C@@H](CC(=O)O)C(=O)NCC(=O)N[C@@H](Cc1ccc(O)cc1)C(=O)N[C@@H](Cc1ccccc1)C(=O)N[C@@H](CCC(=O)O)C(=O)N[C@@H](CCCNC(=N)N)C(=O)N[C@@H](CC(C)C)C(=O)NC(C)(C)C(=O)N[C@@H](C)C(=O)N[C@@H](CCCCN)C(=O)N[C@@H](CC(C)C)C(N)=O)C(C)C)C(C)C (Ac-FQSKGNV[Aib]VDGYFERL[Aib]AKL-NH2) cannot be ordered by IC50: over 5 µM for the first, over 5 µM for the second.

Ac-FFSKKNVFVFGYFERLRAKL-NH2 and Ac-FQSKKNVFVFGYFERLRFKL-NH2 cannot be ordered by IC50: over 5 µM for the first, over 5 µM for the second.

Ac-FQSKKNVFVFFYFERLRAKL-NH2 and Ac-FQSKKNVFDFGYFERLRAKL-NH2 cannot be ordered by IC50: over 1.67 µM for the first, over 5 µM for the second.

CCCCCCCCCCCCCC(=O)NCCCC[C@H](NC(=O)[C@H](CO)NC(=O)[C@H](CCC(N)=O)NC(=O)[C@H](Cc1ccccc1)NC(=O)CCCCC)C(=O)N1CCC[C@@H]1C(=O)N[C@@H](CO)C(=O)N[C@H](C(=O)N[C@@H](Cc1cnc[nH]1)C(=O)N[C@H](C(=O)N[C@@H](CC(=O)O)C(=O)N[C@H](C)C(=O)N[C@@H](Cc1ccc(O)cc1)C(=O)N[C@@H](Cc1ccccc1)C(=O)N[C@@H](CCC(=O)O)C(=O)N[C@@H](CCCNC(=N)N)C(=O)N[C@@H](CC(C)C)C(=O)NC(C)(C)C(=O)N[C@@H](C)C(=O)N[C@@H](CCCCN)C(=O)N[C@@H](CC(C)C)C(N)=O)C(C)(C)C)C(C)C and Ac-FQSKKNVFVFGYFERLDAKL-NH2 cannot be ordered by IC50: over 0.5 µM for the first, over 5 µM for the second.

CCCCCCCCCCCCCC(=O)NCCCC[C@H](NC(=O)[C@@H](NC(=O)[C@H](Cc1cnc[nH]1)NC(=O)[C@@H](NC(=O)[C@H](CO)NC(=O)[C@H]1CCCN1C(=O)[C@H](CCCCN)NC(=O)[C@H](CO)NC(=O)[C@H](CCC(N)=O)NC(=O)[C@H](Cc1ccccc1)NC(=O)CCCCC)C(C)C)C(C)(C)C)C(=O)N[C@H](C)C(=O)N[C@@H](Cc1ccc(O)cc1)C(=O)N[C@@H](Cc1ccccc1)C(=O)N[C@@H](CCC(=O)O)C(=O)N[C@@H](CCCNC(=N)N)C(=O)N[C@@H](CC(C)C)C(=O)NC(C)(C)C(=O)N[C@@H](C)C(=O)N[C@@H](CCCCN)C(=O)N[C@@H](CC(C)C)C(N)=O and Ac-FQSKKNVFVFGYFERLFAKL-NH2 cannot be ordered by IC50: over 0.5 µM for the first, over 5 µM for the second.

Ac-FQSKKNVFLFGYFERLRAKL-NH2 and Ac-FQSKKNVFVFGYFERFRAKL-NH2 cannot be ordered by IC50: over 5 µM for the first, over 5 µM for the second.

First: Ac-FLSKKNVFVFGYFERLRAKL-NH2
Second: Ac-FQSDKNVFVFGYFERLRAKL-NH2
The IC50 of the first is lower: 1 to 5 µM for the first, over 5 µM for the second. The first is the more potent here.

Ac-FQSFKNVFVFGYFERLRAKL-NH2 and CCCCCCCCCCCCCC(=O)NCCCC[C@H](NC(=O)[C@H]1CCCN1C(=O)[C@H](CCCCN)NC(=O)[C@H](CO)NC(=O)[C@H](CCC(N)=O)NC(=O)[C@H](Cc1ccccc1)NC(=O)CCCCC)C(=O)N[C@H](C(=O)N[C@@H](Cc1cnc[nH]1)C(=O)N[C@H](C(=O)N[C@@H](CC(=O)O)C(=O)N[C@H](C)C(=O)N[C@@H](Cc1ccc(O)cc1)C(=O)N[C@@H](Cc1ccccc1)C(=O)N[C@@H](CCC(=O)O)C(=O)N[C@@H](CCCNC(=N)N)C(=O)N[C@@H](CC(C)C)C(=O)NC(C)(C)C(=O)N[C@@H](C)C(=O)N[C@@H](CCCCN)C(=O)N[C@@H](CC(C)C)C(N)=O)C(C)(C)C)C(C)C cannot be ordered by IC50: over 5 µM for the first, over 0.5 µM for the second.

Compared with Ac-FQSKLNVFVFGYFERLRAKL-NH2, Ac-FQSKGNVFVDGYFERLRRKL-NH2 is lower in IC50: over 1.67 µM for the first, under 0.05 µM for the second. The second is the more potent here.

CC(=O)N[C@@H](Cc1ccccc1)C(=O)N[C@@H](CCC(N)=O)C(=O)N[C@@H](CO)C(=O)N[C@@H](CCCCN)C(=O)NCC(=O)N[C@@H](CC(N)=O)C(=O)N[C@H](C(=O)N[C@@H](Cc1ccccc1)C(=O)N[C@H](C(=O)N[C@@H](CC(=O)O)C(=O)NCC(=O)N[C@@H](Cc1ccc(O)cc1)C(=O)N[C@@H](Cc1ccccc1)C(=O)N[C@@H](CCC(=O)O)C(=O)NC(C)(C)C(=O)N[C@@H](CC(C)C)C(=O)NC(C)(C)C(=O)N[C@@H](C)C(=O)N[C@@H](CCCCN)C(=O)N[C@@H](CC(C)C)C(N)=O)C(C)C)C(C)C (Ac-FQSKGNVFVDGYFE[Aib]L[Aib]AKL-NH2) showed an IC50 of over 5 µM.

tested on: not listed separately; experiment: Stability in human plasma assessed as parent compound remaining after 24 hrs; format: ADME, cell-free; settings: read-out: Stability

Point of comparison: CC(=O)N[C@@H](Cc1ccccc1)C(=O)N[C@@H](CCC(N)=O)C(=O)N[C@@H](CO)C(=O)N[C@@H](CCCCN)C(=O)N1CCC[C@@H]1C(=O)N[C@@H](CCCNC(=N)N)C(=O)N[C@H](C(=O)N[C@@H](Cc1cnc[nH]1)C(=O)N[C@H](C(=O)N[C@@H](CC(=O)O)C(=O)NCC(=O)N[C@@H](Cc1ccc(O)cc1)C(=O)N[C@@H](Cc1ccccc1)C(=O)N[C@@H](CCC(=O)O)C(=O)N[C@@H](CCCNC(=N)N)C(=O)N[C@@H](CC(C)C)C(=O)NC(C)(C)C(=O)N[C@@H](C)C(=O)N[C@@H](CCCCN)C(=O)N[C@@H](CC(C)C)C(N)=O)C(C)(C)C)C(C)C, remaining at 24 h 66.1%. Against it:
- CCN1C(=O)CC(SC[C@H](NC(=O)[C@H](CC(C)C)NC(=O)[C@H](CCCCN)NC(=O)[C@H](C)NC(=O)C(C)(C)NC(=O)[C@H](CC(C)C)NC(=O)[C@H](CCCNC(=N)N)NC(=O)[C@H](CCC(=O)O)NC(=O)[C@H](Cc2ccccc2)NC(=O)[C@H](Cc2ccc(O)cc2)NC(=O)CNC(=O)[C@H](CO)NC(=O)[C@@H](NC(=O)[C@H](Cc2cnc[nH]2)NC(=O)[C@@H](NC(=O)[C@H](CC(N)=O)NC(=O)[C@H]2CCCN2C(=O)[C@H](CCCCN)NC(=O)[C@H](CO)NC(=O)[C@H](CCC(N)=O)NC(=O)[C@H](Cc2ccccc2)NC(C)=O)C(C)C)C(C)C)C(N)=O)C1=O (stereo not given in full) — lower, 33.4%
- CCN1C(=O)CC(SC[C@H](NC(=O)[C@H](CC(C)C)NC(=O)[C@H](CCCCN)NC(=O)[C@H](C)NC(=O)C(C)(C)NC(=O)[C@H](CC(C)C)NC(=O)[C@H](CCCNC(=N)N)NC(=O)[C@H](CCC(=O)O)NC(=O)[C@H](Cc2ccccc2)NC(=O)[C@H](Cc2ccc(O)cc2)NC(=O)CNC(=O)[C@@H](NC(=O)[C@@H](NC(=O)[C@H](Cc2cnc[nH]2)NC(=O)[C@@H](NC(=O)[C@H](CC(N)=O)NC(=O)[C@H]2CCCN2C(=O)[C@H](CCCCN)NC(=O)[C@H](CO)NC(=O)[C@H](CCC(N)=O)NC(=O)[C@H](Cc2ccccc2)NC(C)=O)C(C)C)C(C)C)[C@@H](C)O)C(N)=O)C1=O (stereo not given in full) — lower, 41.4%
- CCN1C(=O)CC(SC[C@H](NC(=O)[C@H](CC(C)C)NC(=O)[C@H](CCCCN)NC(=O)[C@H](C)NC(=O)C(C)(C)NC(=O)[C@H](CC(C)C)NC(=O)[C@H](CCCNC(=N)N)NC(=O)[C@H](CCC(=O)O)NC(=O)[C@H](Cc2ccccc2)NC(=O)[C@H](Cc2ccc(O)cc2)NC(=O)[C@H](C)NC(=O)[C@H](CC(=O)O)NC(=O)[C@@H](NC(=O)[C@H](Cc2cnc[nH]2)NC(=O)[C@@H](NC(=O)[C@H](CC(N)=O)NC(=O)[C@H]2CCCN2C(=O)[C@H](CCCCN)NC(=O)[C@H](CO)NC(=O)[C@H](CCC(N)=O)NC(=O)[C@H](Cc2ccccc2)NC(C)=O)C(C)C)C(C)C)C(N)=O)C1=O (stereo not given in full) — lower, 17.9%
- CC(C)C[C@H](NC(=O)[C@H](CCCCN)NC(=O)[C@H](C)NC(=O)C(C)(C)NC(=O)[C@H](CC(C)C)NC(=O)[C@H](CCCNC(=N)N)NC(=O)[C@H](CCC(=O)O)NC(=O)[C@H](Cc1ccccc1)NC(=O)[C@H](Cc1ccc(O)cc1)NC(=O)[C@@H](C)NC(=O)[C@H](CC(=O)O)NC(=O)[C@@H](NC(=O)[C@H](Cc1cnc[nH]1)NC(=O)[C@@H](NC(=O)[C@H](CC(N)=O)NC(=O)[C@H]1CCCN1C(=O)[C@H](CCCCN)NC(=O)[C@H](CO)NC(=O)[C@H](CCC(N)=O)NC(=O)[C@H](Cc1ccccc1)NC(=O)Cc1ccc2ccccc2c1)C(C)C)C(C)(C)C)C(N)=O — higher, 108%
- CCCCCC(=O)N[C@@H](Cc1ccccc1)C(=O)N[C@@H](CCC(N)=O)C(=O)N[C@@H](CO)C(=O)N[C@@H](CCCCN)C(=O)N1CCC[C@@H]1C(=O)N[C@@H](CSCNC(C)=O)C(=O)N[C@H](C(=O)N[C@@H](Cc1cnc[nH]1)C(=O)N[C@H](C(=O)N[C@@H](CC(=O)O)C(=O)N[C@H](C)C(=O)N[C@@H](Cc1ccc(O)cc1)C(=O)N[C@@H](Cc1ccccc1)C(=O)N[C@@H](CCC(=O)O)C(=O)N[C@@H](CCCNC(=N)N)C(=O)N[C@@H](CC(C)C)C(=O)NC(C)(C)C(=O)N[C@@H](C)C(=O)N[C@@H](CCCCN)C(=O)N[C@@H](CC(C)C)C(=O)N[C@@H](CSC1CC(=O)N(CC)C1=O)C(=O)O)C(C)(C)C)C(C)C (stereo not given in full) — higher, 107%
